Reference: the supplement of paper PMC8671470

How the values were obtained:
Assay in all cases: cell viability (% survival relative to DMSO control, bortezomib = 0%); higher = less cytotoxic
Conditions in all cases: 72 h
HL-60 = tested on: HL-60
In short: (§1)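 Percent survival figures are means of duplicate wells. They were obtained by CellTiter-Glo luminescence after 10 AML and 5 CML cell lines spent 72 h at 37 °C with 5% CO2 in 384-well plates with compounds at 1, 10, 100, 1000 or 10000 nM. Vehicle was set to 100% and a 10 µM positive control to 0%.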

K-562 = tested on: K-562
In short: as §1

KCL-22 = tested on: KCL-22
In short: as §1

LAMA-84 = tested on: LAMA-84
In short: as §1

| SMILES | cell viability (HL-60; 1 nM) | cell viability (HL-60; 10 nM) | cell viability (HL-60; 100 nM) | cell viability (HL-60; 1000 nM) | cell viability (HL-60; 10000 nM) | cell viability (K-562; 1 nM) | cell viability (K-562; 10 nM) | cell viability (K-562; 100 nM) | cell viability (K-562; 1000 nM) | cell viability (K-562; 10000 nM) | cell viability (KCL-22; 1 nM) | cell viability (KCL-22; 10 nM) | cell viability (KCL-22; 100 nM) | cell viability (KCL-22; 1000 nM) | cell viability (KCL-22; 10000 nM) | cell viability (LAMA-84; 1 nM) | cell viability (LAMA-84; 10 nM) | cell viability (LAMA-84; 100 nM) | cell viability (LAMA-84; 1000 nM) | cell viability (LAMA-84; 10000 nM) |
| --- | --- | --- | --- | --- | --- | --- | --- | --- | --- | --- | --- | --- | --- | --- | --- | --- | --- | --- | --- | --- |
| CC(/C=C1\SC(=S)N(CC(=O)O)C1=O)=C\c1ccccc1 [Epalrestat] | 120% | 102% | 109% | 112% | 115% | 114% | 102% | 109% | 99.5% | 100% | 106% | 99.8% | 100% | 101% | 102% | 104% | 99.8% | 82.6% | 104% | 99.8% |
| CCOC(=O)[C@@]1(CCCCCCOc2ccc(Cl)cc2)CO1 [Etomoxir] | 77.7% | 74.7% | 83.3% | 98.5% | 69.5% | 113% | 95.8% | 86.5% | 93.2% | 71.8% | 104% | 112% | 116% | 101% | 78.9% | 94.9% | 110% | 106% | 58.5% | 62.7% |
| Cc1c(-c2ccccc2)oc2c(C(=O)OCCN3CCCCC3)cccc2c1=O.Cl [Flavoxate] | 89.2% | 121% | 90.7% | 102% | 103% | 91% | 90% | 89.8% | 98.8% | 83.2% | 94.6% | 93.2% | 102% | 95.6% | 87% | 98% | 102% | 97.6% | 101% | 101% |
| O=C(O)CCc1ccc(NCc2cccc(Oc3ccccc3)c2)cc1 [GW9508] | 90% | 94.3% | 104% | 103% | 83.5% | 109% | 88.8% | 100% | 94.2% | 120% | 101% | 89.5% | 89.6% | 102% | 93.4% | 96.8% | 98.6% | 108% | 93.2% | 106% |
| c1ccc2c(c1)OCC(=C1NCCN1)O2 [Idazoxan] | 89.1% | 80.3% | 80% | 97.2% | 75.9% | 80% | 98.1% | 90.7% | 100% | 90.9% | 105% | 104% | 78.6% | 91% | 87.4% | 101% | 98.4% | 89% | 96.5% | 93% |
| C[C@]12O[C@H](C[C@]1(O)CO)n1c3ccccc3c3c4c(c5c6ccccc6n2c5c31)CNC4=O [Lestaurtinib] | 91.8% | 77.6% | 44.5% | 17.5% | 0.00654% | 94.2% | 94.3% | 64.5% | 13.5% | 2.74% | 104% | 91% | 59.6% | 21.8% | 1.08% | 99.6% | 94.4% | 34.2% | 25% | 0.148% |
| O=C(O)c1nn(Cc2ccc(Cl)cc2Cl)c2ccccc12 [Lonidamine] | 100% | 119% | 90.2% | 82.2% | 105% | 94.2% | 104% | 118% | 98.4% | 82.6% | 103% | 111% | 107% | 84% | 90.7% | 99.1% | 94.6% | 108% | 99.9% | 102% |
| C1CCc2nnc(C34CC5CC(CC(C5)C3)C4)n2CC1 [MERCK-544] | 94.7% | 154% | 103% | 74.8% | 129% | 109% | 117% | 89.3% | 103% | 129% | 99.2% | 106% | 95.8% | 106% | 116% | 102% | 94.5% | 91.9% | 92.9% | 101% |
| CC(Cc1ccc(O)c(O)c1)C(C)Cc1ccc(O)c(O)c1 (stereo not drawn) [Masoprocol] | 89% | 81.2% | 118% | 90% | 6.31% | 87.2% | 109% | 105% | 95.8% | 76.7% | 99.8% | 85.9% | 120% | 108% | 66.2% | 95.8% | 95.7% | 106% | 95.5% | 94% |
| CC(C(=O)O)C(=O)O [Methylmalonate] | 84.9% | 104% | 92.2% | 116% | 90.1% | 95.3% | 101% | 106% | 95.2% | 107% | 91.7% | 100% | 112% | 88.3% | 93.6% | 89.2% | 101% | 106% | 98.2% | 90.3% |
| COc1c(C)c2c(c(O)c1C/C=C(\C)CCC(=O)O)C(=O)OC2 [Mycophenolic acid] | 108% | 117% | 80% | 51.3% | 18.4% | 91.3% | 102% | 91.5% | 36.5% | 13.6% | 105% | 98.8% | 79.8% | 24.7% | 8.9% | 106% | 93.2% | 108% | 46.8% | 16.9% |
| C1CCC(C(CC2CCCCN2)C2CCCCC2)CC1.O=C(O)/C=C\C(=O)O (stereo not drawn) [Perhexiline] | 91.2% | 90.1% | 110% | 93% | -0.124% | 98.5% | 97.3% | 110% | 103% | 0.792% | 92% | 79.3% | 94.3% | 101% | 1.14% | 97.7% | 89.1% | 98% | 97.7% | 12.3% |
| OCCN1CCN(CCCN2c3ccccc3Sc3ccc(Cl)cc32)CC1 [Perphenazine] | 97.8% | 133% | 92% | 103% | 18.8% | 108% | 97.3% | 81.8% | 92% | 0.308% | 122% | 107% | 102% | 111% | 39.6% | 105% | 103% | 93.5% | 97.2% | 47.6% |
| C=CCc1ccc2c(c1O)C(=O)c1ccccc1C2=O [R162] | 98.1% | 104% | 95.6% | 92.5% | 101% | 99.5% | 95.2% | 94% | 118% | 98.5% | 100% | 98.3% | 101% | 96.6% | 96.7% | 104% | 97.2% | 94.7% | 103% | 88.7% |
| O=C(c1ccc(OCCN2CCCCC2)cc1)c1c(-c2ccc(O)cc2)sc2cc(O)ccc12 [Raloxifene] | 99.3% | 90.6% | 99.8% | 110% | 62.1% | 99.7% | 99.3% | 98.5% | 98.8% | 77.3% | 93.9% | 92.7% | 100% | 94.5% | 75.8% | 106% | 102% | 94.9% | 95.5% | 87.9% |
| NC(=O)c1ncn([C@@H]2O[C@H](CO)[C@@H](O)[C@H]2O)n1 [Ribavirin] | 92.6% | 101% | 130% | 110% | 149% | 82.4% | 95.1% | 119% | 107% | 103% | 72.9% | 104% | 114% | 107% | 103% | 84.9% | 98.2% | 101% | 110% | 89.8% |
| Nc1ncnc2c1ncn2[C@@H]1O[C@H](CSCC[C@H](N)C(=O)O)[C@@H](O)[C@H]1O [S-Adenosyl Homocysteine] | 103% | 101% | 115% | 111% | 74.9% | 102% | 104% | 105% | 104% | 98.8% | 97.5% | 113% | 98.5% | 94.5% | 102% | 105% | 110% | 100% | 99.4% | 103% |
| CCCc1nn(C)c2c(O)nc(-c3cc(S(=O)(=O)N4CCN(C)CC4)ccc3OCC)nc12 [Sildenafil] | 99.7% | 88.7% | 100% | 82.9% | 111% | 91.1% | 93% | 94.9% | 110% | 103% | 89.7% | 102% | 97.5% | 88.7% | 113% | 91.3% | 98.8% | 92.1% | 95% | 103% |
| Cc1coc2c1C(=O)C(=O)c1c-2ccc2c(C)cccc12 [Tanshinone I] | 99% | 105% | 117% | 105% | 79.7% | 98.6% | 100% | 106% | 82.7% | 79.8% | 125% | 100% | 108% | 111% | 59.5% | 104% | 105% | 101% | 108% | 95.4% |
| CCOC(=O)N1c2ccc(C(F)(F)F)cc2[C@@H](N(Cc2cc(C(F)(F)F)cc(C(F)(F)F)c2)C(=O)OC)C[C@H]1CC [Torcetrapib] | 92.7% | 109% |  | 107% | 91% | 103% | 109% | 121% | 98.6% | 94.4% | 105% | 107% | 126% | 98.3% | 86.8% | 116% | 103% | 110% | 95.6% | 110% |
| Oc1cc(Cl)ccc1Oc1ccc(Cl)cc1Cl [Triclosan] | 90.3% | 76.6% | 85.1% | 106% | 102% | 103% | 105% | 93.8% | 106% | 66.6% | 115% | 98.3% | 89.7% | 105% | 65.5% | 102% | 91.1% | 103% | 108% | 66.5% |
| COc1cc2c(NC3CCN(C)CC3)nc(N3CCCN(C)CC3)nc2cc1OCCCN(C)C [UNC0224] | 92.3% | 123% | 97.8% | 89.5% | 65.1% | 95% | 106% | 102% | 102% | 88.8% | 98.2% | 134% | 97.6% | 94.9% | 90.7% | 91.1% | 106% | 96.5% | 95.9% | 95.8% |
| CC(C)C[C@H](NC(=O)[C@@H](O)[C@H](N)Cc1ccccc1)C(=O)O [Ubenimex] | 98.3% | 124% | 98.7% | 77.9% | 97% | 111% | 102% | 113% | 89.6% | 102% | 118% | 120% |  | 89.2% | 95.2% | 115% | 101% | 103% | 101% | 101% |
| O=P(O)(O)C(O)(Cn1ccnc1)P(=O)(O)O [Zoledronic acid] | 84.3% | 111% | 105% | 98.3% | 111% | 105% | 101% | 106% | 98.6% | 102% | 107% | 103% | 102% | 104% | 97.4% | 99.5% | 104% | 100% | 98.2% | 99.2% |
